± gives the uncertainty stated by the source.
Assay: xn = mol fraction of the nth substance listed

CC1CCC(C)O1 (stereo not drawn) + Brc1ccccc1
viscosity [mPa·s], 101 kPa
Conditions	x1 = 0.0965	x1 = 0.2006	x1 = 0.3011	x1 = 0.4016	x1 = 0.4921
298.15 K	1.003 ± 0.0068	0.941 ± 0.0064	0.8808 ± 0.006	0.8196 ± 0.0056	0.7658 ± 0.0053
313.15 K	0.833 ± 0.0059	0.7831 ± 0.0056	0.7338 ± 0.0052	0.6848 ± 0.0049	0.6411 ± 0.0047

CC1CCCO1 (stereo not drawn) + Brc1ccccc1
viscosity [mPa·s], 101 kPa
Conditions	x1 = 0.0991	x1 = 0.1998	x1 = 0.301	x1 = 0.4046	x1 = 0.5029
298.15 K	1.007 ± 0.0082	0.9516 ± 0.0078	0.8942 ± 0.0074	0.8346 ± 0.0069	0.7773 ± 0.0065
313.15 K	0.835 ± 0.0069	0.7895 ± 0.0066	0.7425 ± 0.0063	0.6943 ± 0.0059	0.6477 ± 0.0056

CC(C)CO + C1CCCCC1
303.15 K, 101.33 kPa
Conditions	viscosity [mPa·s]
x2 = 0.1485	1.976 ± 0.2
x2 = 0.2985	1.513 ± 0.15
x2 = 0.4515	1.185 ± 0.12
x2 = 0.6051	0.962 ± 0.097
x2 = 0.7417	0.839 ± 0.084
x2 = 0.8981	0.762 ± 0.076

CCOC(=O)CC + C1CCCCC1
viscosity [mPa·s], 101 kPa
Conditions	298.15 K	308.15 K
x1 = 0.0526	0.835 ± 0.084	0.709 ± 0.071
x1 = 0.1334	0.767 ± 0.077	0.65 ± 0.065
x1 = 0.2568	0.686 ± 0.069	0.579 ± 0.058
x1 = 0.3148	0.656 ± 0.066	0.553 ± 0.056
x1 = 0.4538	0.603 ± 0.061	0.505 ± 0.051
x1 = 0.4986	0.59 ± 0.059	0.493 ± 0.049
x1 = 0.5085	0.588 ± 0.059	0.491 ± 0.049
x1 = 0.6558	0.561 ± 0.056	0.465 ± 0.047
x1 = 0.7181	0.556 ± 0.056	0.459 ± 0.046
x1 = 0.8504	0.556 ± 0.056	0.456 ± 0.046
x1 = 0.9312	0.564 ± 0.057	0.459 ± 0.046

Cc1ccccc1O + C1CCCCC1
308.15 K, 101 kPa
Conditions	viscosity [mPa·s]
x1 = 0.0821	0.8505 ± 0.007
x1 = 0.1618	0.9431 ± 0.0077
x1 = 0.2824	1.146 ± 0.009
x1 = 0.3677	1.341 ± 0.011
x1 = 0.4418	1.568 ± 0.012
x1 = 0.5033	1.708 ± 0.013
x1 = 0.5871	2.049 ± 0.016
x1 = 0.7934	3.199 ± 0.024
x1 = 0.8996	4.104 ± 0.031

C=CC(=O)OC + C1CCOC1
viscosity [mPa·s], 101 kPa
Conditions	293.15 K	298.15 K	303.15 K	308.15 K	313.15 K	318.15 K
x2 = 0.0773	0.4982 ± 0.02	0.4567 ± 0.019	0.4181 ± 0.017	0.3852 ± 0.016	0.3553 ± 0.015	0.3283 ± 0.013
x2 = 0.1554	0.4934 ± 0.02	0.454 ± 0.018	0.4172 ± 0.017	0.3854 ± 0.016	0.3561 ± 0.015	0.3294 ± 0.013
x2 = 0.2064	0.4907 ± 0.02	0.4527 ± 0.018	0.4169 ± 0.017	0.3858 ± 0.016	0.3569 ± 0.015	0.3304 ± 0.013
x2 = 0.2545	0.4885 ± 0.02	0.4517 ± 0.018	0.417 ± 0.017	0.3865 ± 0.016	0.3579 ± 0.015	0.3315 ± 0.013
x2 = 0.3215	0.486 ± 0.02	0.4508 ± 0.018	0.4174 ± 0.017	0.3878 ± 0.016	0.3596 ± 0.015	0.3333 ± 0.014
x2 = 0.3989	0.4838 ± 0.02	0.4505 ± 0.018	0.4186 ± 0.017	0.3898 ± 0.016	0.362 ± 0.015	0.3358 ± 0.014
x2 = 0.4655	0.4826 ± 0.02	0.4507 ± 0.018	0.4201 ± 0.017	0.392 ± 0.016	0.3644 ± 0.015	0.3382 ± 0.014
x2 = 0.53	0.4819 ± 0.02	0.4515 ± 0.018	0.422 ± 0.017	0.3945 ± 0.016	0.3671 ± 0.015	0.3409 ± 0.014
x2 = 0.6023	0.4819 ± 0.02	0.453 ± 0.018	0.4246 ± 0.017	0.3977 ± 0.016	0.3706 ± 0.015	0.3442 ± 0.014
x2 = 0.6834	0.4826 ± 0.02	0.4553 ± 0.018	0.4282 ± 0.017	0.4018 ± 0.016	0.3748 ± 0.015	0.3483 ± 0.014
x2 = 0.7632	0.4841 ± 0.02	0.4583 ± 0.019	0.4323 ± 0.018	0.4064 ± 0.017	0.3795 ± 0.015	0.3528 ± 0.014
x2 = 0.8468	0.4865 ± 0.02	0.4622 ± 0.019	0.4372 ± 0.018	0.4118 ± 0.017	0.3849 ± 0.016	0.3579 ± 0.015
x2 = 0.9316	0.4899 ± 0.02	0.467 ± 0.019	0.4429 ± 0.018	0.4177 ± 0.017	0.3909 ± 0.016	0.3634 ± 0.015

C=CC(=O)OCCCC + C1CCOC1
viscosity [mPa·s], 101 kPa
Conditions	293.15 K	298.15 K	303.15 K	308.15 K	313.15 K	318.15 K
x2 = 0.0712	0.8609 ± 0.035	0.8036 ± 0.033	0.7505 ± 0.031	0.7019 ± 0.029	0.6569 ± 0.027	0.6143 ± 0.025
x2 = 0.1406	0.8246 ± 0.034	0.7708 ± 0.031	0.721 ± 0.029	0.6751 ± 0.028	0.6321 ± 0.026	0.5913 ± 0.024
x2 = 0.208	0.7908 ± 0.032	0.7403 ± 0.03	0.6935 ± 0.028	0.65 ± 0.026	0.609 ± 0.025	0.5698 ± 0.023
x2 = 0.2779	0.7572 ± 0.031	0.71 ± 0.029	0.6661 ± 0.027	0.6249 ± 0.025	0.5858 ± 0.024	0.5482 ± 0.022
x2 = 0.3685	0.7159 ± 0.029	0.6727 ± 0.027	0.6323 ± 0.026	0.594 ± 0.024	0.5571 ± 0.023	0.5213 ± 0.021
x2 = 0.4339	0.6875 ± 0.028	0.6471 ± 0.026	0.609 ± 0.025	0.5727 ± 0.023	0.5374 ± 0.022	0.5028 ± 0.021
x2 = 0.4996	0.6603 ± 0.027	0.6225 ± 0.025	0.5867 ± 0.024	0.5522 ± 0.022	0.5182 ± 0.021	0.4848 ± 0.02
x2 = 0.5642	0.6347 ± 0.026	0.5995 ± 0.024	0.5657 ± 0.023	0.5328 ± 0.022	0.5002 ± 0.02	0.4677 ± 0.019
x2 = 0.6426	0.6053 ± 0.025	0.5729 ± 0.023	0.5415 ± 0.022	0.5104 ± 0.021	0.4792 ± 0.019	0.4478 ± 0.018
x2 = 0.7208	0.5778 ± 0.024	0.548 ± 0.022	0.5187 ± 0.021	0.4893 ± 0.02	0.4592 ± 0.019	0.4288 ± 0.017
x2 = 0.7956	0.553 ± 0.022	0.5256 ± 0.021	0.4981 ± 0.02	0.4701 ± 0.019	0.4411 ± 0.018	0.4115 ± 0.017
x2 = 0.8642	0.5316 ± 0.022	0.5063 ± 0.021	0.4803 ± 0.019	0.4534 ± 0.018	0.4253 ± 0.017	0.3964 ± 0.016
x2 = 0.9322	0.5117 ± 0.021	0.4882 ± 0.02	0.4637 ± 0.019	0.4378 ± 0.018	0.4103 ± 0.017	0.3819 ± 0.015
